We go through two molecules from patent US7045495B2 (Sloan-Kettering Institute for Cancer Research, priority 1996, dated 2006).

Assay [1] relates to gastric cancer cells (SK-GT cells). Put plainly: cell proliferation studies with [3H]-thymidine. The class given is cell-based, human.
For assay [2], the system named is MKN-74 cells. Nature of the assay: apoptosis by QFM, Hoechst-33258 staining. Format: cell-based, human. As for the experimental part:
(§1) Apoptosis was measured by two different methods: (i) Quantitative fluorescent microscopy (QFM) of nuclear changes induced by apoptosis, as determined by bisbenzimide trihydrochloride (Hoescht-33258) staining of nuclear chromatin (15), and (ii) a terminal deoxynucleotidyl transferase (TdT) assay that labels the 3′-OH ends of DNA fragments produced in apoptotic cells (16). […] MMC was diluted in water. A stock safingol solution was constituted in DMSO and was subsequently diluted at least 1:100 in media for all experiments. […] For QFM determinations, the cells were fixed in 3% paraformaldehyde and incubated at room temperature for 10 minutes. The fixative was removed and the cells were washed with 1×PBS, resuspended in 20 μl 1×PBS containing only 8 μg/ml of bisbenzimide trihydrochloride (Hoechst #33258), and incubated at room temperature for 15 minutes. Aliquots of the cells (10 μl) were placed on glass slides coated with 3-amino-propyl-triethoxysilane, and duplicate samples of 500 cells each were counted and scored for the incidence of apoptotic chromatin condensation using an Olympus BH-2 fluorescence microscope equipped with a BH2-DM2U2UV Dich. Mirror Cube filter (Olympus, Lake Success, N.Y.). For the TdT assays, the ApopTag Kit (Oncor, Gaithersburg, Md.) was used. This method employs a fluoresceinated antidigoxigenin antibody directed against nucleotides of digoxigenin-11-dUTP (d-dUTP) which are catalytically added to the 3-ends fragmented DNA by TdT. Briefly, 1–2×10^6 cells were washed and fixed with 1% paraformaldehyde. The fixed cells were incubated in a reaction mixture containing TdT and d-dUTP for 30 minutes at 37° C. Stop/wash buffer was added, and the cells were resuspended in 100 μl of fluorescinated anti-digoxigenin antibody for 30 minutes at room temperature. The cells were then washed with 0.1% Triton X-100 and counterstained with propidium iodide (PI) solution. Green (d-dUTP labeled DNA strand breaks) and red (PI staining for total DNA content) fluorescence of individual cells were measured on a FACScan flow cytometer (Becton Dickinson, San Jose, Calif.). The resulting bivariate plots enabled the detection of apoptotic events within the cell cycle. The R1 cursor was set using the control specimen to define normal levels of green fluorescence (i.e., basal levels of apoptosis). Cells with fluorescence above the R, cursor were considered apoptotic. The data from 10,000 cells were collected and analyzed using CellFit and LYSYS software (Becton Dickinson).
Apoptosis was again measured by QFM staining.
(§2) Induction of apoptosis was estimated by counting the frequency of condensed nuclear chromatin with Hoechst-33258 stain in duplicate samples of 400 cells.
For these studies apoptosis was measured by quantitative fluorescent microscopy (QFM) determination with bisbenzimide trihydrochloride stain (Hoescht-33258) for condensed nuclear chromatin characteristic of apoptotic cells.
For QFM determinations 500 cells were counted and scored for the incidence of apoptotic chromatin changes under an Olympus BH-2 fluorescence microscope in duplicate samples, ±SD, using a BH2-DM2U2UV Dich. Mirror Cube filter.
To study this further applicants elected to examine five bis-indolylmaleimides with various potencies against PKC. […] The induction of apoptosis was estimated by counting the frequency of condensed nuclear chromatin with Hoechst-33258 stain in duplicate samples of 400 cells.

In assay [3] the test system is MDA-MB-468 breast cancer cells. Put plainly: apoptosis by QFM, Hoechst-33258 staining. Format: cell-based, human. The conditions noted are these: for percentage of cells undergoing apoptosis (QFM): FIG. 9, safingol 50 μM. As for the experimental part: PRELIMINARY STUDIES. […] Apoptosis was measured by quantitative fluorescent microscopy (QFM) of nuclear changes induced by apoptosis, as determined by bisbenzimide trihydrochloride (Hoescht-33258) staining of condensed nuclear chromatin (24). For the QFM duplicate samples of 500 cells each were counted and scored for the incidence of apoptotic chromatin condensation using an Olympus BH-2 fluorescence microscope.
Applicants also tested the PKC inhibitor UCN-01 (27) which is currently in phase I clinical trial at the NCI. In contrast to safingol, which inhibits PKC by binding to its regulatory domain, UCN-01 inhibits PKC at its catalytic domain. Therefore, assessment of the effect of UCN-01 on inducing apoptosis in combination with MMC on MDA-MB-468 was also performed. The QFM method to quantitate apoptosis was again used. The conditions tested were identical to those described above for safingol except UCN-01 (1 μM) was substituted for safingol in all the conditions.
as §2

The next assay concerns SK-GT-5 cells. Put plainly: apoptosis by quantitative fluorescent microscopy (QFM), Hoechst-33258 staining. The note with it: for percentage of cells undergoing apoptosis (QFM): FIG. 4: safingol 50 μM and/or PMA 1 ng/ml for 1 hour, then MMC 5 μg/ml or no drug 24 hours, MMC alone 24 hours. Format: cell-based, human. As for the experimental part:
as §1
For the QFM duplicate samples of 500 cells each were counted and scored for the incidence of apoptotic chromatin condensation using an Olympus BH-2 fluorescence microscope.

For assay [4], the target named is cyclic-adenosine monophosphate-dependent protein kinase A. The note with it: read-out: concentration for 50% inhibition of protein kinase A; safingol; cited from earlier work.
The next assay concerns cdk2. Nature of the assay: cdk2 activity by histone type-I phosphorylation after immunoprecipitation from treated cells. The class given is cell-based, human. The conditions noted are these: MKN-74 cells; 24 hours; MMC 5.0 μg/ml, safingol 50 μM; FIG. 8. How it is done: (ii) Safingol increases cdk2 activity only when co-administered with chemotherapy: For determination of cdk2 activity MKN-74 cells were treated according to the conditions shown to enhance chemotherapy induced apoptosis: (i) no drug (control) for 24 hours, (ii) Mitomycin-C alone (5.0 μg/ml) for 24 hours, (iii) Safingol alone (50 μM) for 24 hours, (iv) the combination of safingol (50 μM) and Mitomycin-C (MMC, 5.0 μg/ml) for 24 hours. Cdk2 activity was determined by histone type-I phosphorylation, as described (38). For these studies cdk2 was first immunoprecipitated from the cell lysates following treatment under these four conditions. The kinase reaction was allowed to proceed at 30° for 30 minutes in the presence of histone type-I and [^32P]ATP. For each sample a control sample was run under the same conditions, but IgG was used in place of […]. This allowed for detection on non-specific kinase activity which was then subtracted out from the cdk2 activity to determine the absolute radioactive incorporation attributable to cdk2. The samples were transferred to a 10% SDS PAGE gel for analysis. The autoradiographs were analyzed on a phosphoimager for determinations of relative cdk2 activity.

Assay [5] relates to MKN-74 cells. Nature of the assay: TdT assay with flow cytometry. Format: cell-based, human. The conditions noted are these: 24 hours; safingol 50 μM, MMC 5 μg/ml. In general terms: Flow cytometry measures light scatter and fluorescence of single cells or particles in a stream.
Method: Apoptosis was measured by two different methods: (i) Quantitative fluorescent microscopy (QFM) of nuclear changes induced by apoptosis, as determined by bisbenzimide trihydrochloride (Hoescht-33258) staining of nuclear chromatin (15), and (ii) a terminal deoxynucleotidyl transferase (TdT) assay that labels the 3′-OH ends of DNA fragments produced in apoptotic cells (16). […] MMC was diluted in water. A stock safingol solution was constituted in DMSO and was subsequently diluted at least 1:100 in media for all experiments. […] For QFM determinations, the cells were fixed in 3% paraformaldehyde and incubated at room temperature for 10 minutes. […] Aliquots of the cells (10 μl) were placed on glass slides coated with 3-amino-propyl-triethoxysilane, and duplicate samples of 500 cells each were counted and scored for the incidence of apoptotic chromatin condensation using an Olympus BH-2 fluorescence microscope equipped with a BH2-DM2U2UV Dich. […] Green (d-dUTP labeled DNA strand breaks) and red (PI staining for total DNA content) fluorescence of individual cells were measured on a FACScan flow cytometer (Becton Dickinson, San Jose, Calif.). […] The R1 cursor was set using the control specimen to define normal levels of green fluorescence (i.e., basal levels of apoptosis). Cells with fluorescence above the R, cursor were considered apoptotic. […]

Structures are written as SMILES. Several values for one entry are separate records, joined by “and”; a condition that tells them apart may be missing. Equal entries are not always repeated. Bounds are passed on as bounds.

In the case of `CCCCCCCCCCCCCCC[C@H](O)[C@@H](N)CO` [safingol, L-threo-dihydrosphingosine], the “highest non-toxic dose (cell proliferation studies)” value in assay [1] (SK-GT / SK-GT-5 / gastric cancer cells, 24 hours) came out at 50 µM. Further, the “potentiation of MMC-induced apoptotic response by addition of safingol” value in the assay with MKN-74 cells [2] (MKN-74) and in the assay on SK-GT-5 cells (SK-GT-5) was “approximately 2 fold” throughout. Moreover, the “percentage of cells undergoing apoptosis (QFM)” value in assay [3] (24 hours, MMC 5.0 μg/ml) is listed as 11%±1; in the assay on SK-GT-5 cells, “essentially no effect on inducing apoptosis”. Also, the IC50 in assay [4] was more than 218 µM. Also, the cdk2 activity entry in the assay with cdk2 is reported as “decreased cdk2”. Moreover, in the assay with MKN-74 cells [5], the “apoptotic cells: green fluorescence above R1 region (TdT assay)” value is “essentially no apoptosis”.
On to `CO[C@@]12[C@H](COC(N)=O)C3=C(C(=O)C(C)=C(N)C3=O)N1C[C@@H]1N[C@@H]12` [MMC, Mitomycin-C], for which the “inhibition of cell proliferation” value in assay [1] (MMC 5 μg/ml) was < 20% and 20%. Besides, the “Percent Apoptosis” value in the assay on MKN-74 cells [2] (24 h continuous (single drug) or concomitant, flavopiridol 300 nM, MMC 1 μg/ml, paclitaxel 50 μM, carboplatin) is given as 7%±1%. Moreover, the “% APOPTOSIS” value with MKN-74 cells [2] (24 hours, FLAVO 300 nM, Taxol 50 μM, MMC 1 μg/ml, single drugs or in combination) is 7%. In addition, the “percent induction of apoptosis, Concomitant” value in the assay with MKN-74 cells [2] (24 hours, FLAVO 300 nM, Taxol 50 μM, MMC 1 μg/ml, single drugs or together) is on record as 7% ± 1%. Also, the “induction of apoptosis (condensed chromatin, 400 cells)” value was 10% ±2% in the assay on MKN-74 cells [2] (24 hours, PKC inhibitor 1 to 4 μM, MMC 5 μg/ml); 7% ± 1 with MKN-74 cells [2] (MKN-74, 24 hours, Flavo 300 nM, MMC 5 μg/ml); 6% ± 1 in assay [3] (MDA-MB-468, 24 hours, UCN-01 7.5 to 10 μM, MMC 5 μg/ml). Further, the “percentage of cells undergoing apoptosis (QFM)” value in the assay on MKN-74 cells [2] (24 hours, RO 32-0432 1 μM, MMC) was 16%±2%; in the assay with MKN-74 cells [2] (MKN-74 (wild-type p53), 24 hours, safingol 50 μM, MMC 5 μg/ml), 40%; in assay [3] (24 hours, MMC 5.0 μg/ml) it was 6%±1; in assay [3] (24 hours, MMC […]) it was 4%±2; in the assay with SK-GT-5 cells, 36%±4. Besides, the “induction of apoptosis (QFM)” value is given as 26%±5% with MKN-74 cells [2] (24 hours, safingol 50 μM, UCN-01 10 μM, MMC 5 μg/ml) and 7%±1% in the assay with MKN-74 cells [2] (FIG. 7, 24 hours, flavopiridol 300 nM, MMC 50 μM (as printed b127)). Also, the “percent induction of apoptosis, 6hrs” value in the assay with MKN-74 cells [2] (Ro 2 μM, MMC 1 μg/ml) is 1.0%. Further, in the assay with MKN-74 cells [2] (Ro 2 μM, MMC 1 μg/ml), the “percent induction of apoptosis, 12hrs” value was determined as 0.8%. Also, the “percent induction of apoptosis, 24hrs” value in the assay on MKN-74 cells [2] (Ro 2 μM, MMC 1 μg/ml) turned out to be 5.8%. Besides, the “percent induction of apoptosis, 48hrs” value in the assay with MKN-74 cells [2] (Ro 2 μM, MMC 1 μg/ml) is 27%. Besides, in the assay with MKN-74 cells [2] (Ro 2 μM, MMC 1 μg/ml), the “percent induction of apoptosis, 72hrs” value came out at 30%. The “percentage of cells undergoing apoptosis” value in assay [3] (MDA-MB-468, flavopiridol, MMC) is reported as 10%±2%. Besides, in the assay with cdk2, the cdk2 activity entry is listed as “decreased cdk2”. In addition, the “apoptotic cells: green fluorescence above R1 region (TdT assay)” value in the assay on MKN-74 cells [5] is given as “increased green fluorescence”.
